Laboratory results published in patent EP0487095B1, “Pyridyl derivatives, medicines containing these compounds and processes for their preparation” (Dr. Karl Thomae GmbH, priority 1990, dated 1992).

How the values were obtained:
Thrombozytenaggregation = assay: Collagen-induced platelet aggregation (Born and Cross) in platelet-rich plasma; format: cell-based; conditions: Homo sapiens; platelet-rich plasma of healthy subjects, 10 min preincubation at 37°C, 50% change of optical density; read-out: Hemmung der collagen-induzierten Aggregation EC₅₀
From the text: 1. Antithrombotische Wirkung
Die Thrombozytenaggregation wird nach der Methode von Born und Cross (J. Physiol. 170, 397 (1964)) in plättchenreichem Plasma gesunder Versuchspersonen gemessen. Zur Gerinnungshemmung wird das Blut mit Natriumcitrat 3,14 % im Volumenverhältnis 1:10 versetzt.
Collagen-induzierte Aggregation
Der Verlauf der Abnahme der optischen Dichte der Plättchensuspension wird nach Zugabe der aggregationsauslösenden Substanz photometrisch gemessen und registriert. Aus dem Neigungswinkel der Dichtekurve wird auf die Aggregationsgeschwindigkeit geschlossen. Der Punkt der Kurve, bei dem die größte Lichtdurchlässigkeit vorliegt, dient zur Berechnung der "optical density".
Die Collagen-Menge wird möglichst gering gewählt, aber doch so, daß sich eine irreversibel verlaufende Reaktionskurve ergibt. Verwendet wird das handelsübliche Collagen der Firma Hormonchemie, München. Vor der Collagen-Zugabe wird das Plasma jeweils 10 Minuten mit der Substanz bei 37°C inkubiert.
Aus den erhaltenen Meßzahlen wird graphisch eine EC₅₀ bestimmt, die sich auf eine 50%ige Änderung der "optical density" im Sinne einer Aggregationshemmung bezieht.

Thromboxan = target: T1, Thromboxan (Homo sapiens, UniProt P21731); assay: Thromboxane-antagonistic effect (displacement of 3H-labelled ligand from platelet suspension); format: binding; conditions: 60 min at room temperature, read-out: Thromboxanantagonistische Wirkung IC₅₀
T1 construct: Aliquote der erhaltenen Plättchensuspension werden mit der Testsubstanz, dem Liganden (3H-markiert) und einem Marker (14C-markiert) 60 Minuten bei Raumtemperatur inkubiert; endogenous in cells; host or cells: gel-filtered human platelets from venous blood
T1 sequence (P21731 1-343): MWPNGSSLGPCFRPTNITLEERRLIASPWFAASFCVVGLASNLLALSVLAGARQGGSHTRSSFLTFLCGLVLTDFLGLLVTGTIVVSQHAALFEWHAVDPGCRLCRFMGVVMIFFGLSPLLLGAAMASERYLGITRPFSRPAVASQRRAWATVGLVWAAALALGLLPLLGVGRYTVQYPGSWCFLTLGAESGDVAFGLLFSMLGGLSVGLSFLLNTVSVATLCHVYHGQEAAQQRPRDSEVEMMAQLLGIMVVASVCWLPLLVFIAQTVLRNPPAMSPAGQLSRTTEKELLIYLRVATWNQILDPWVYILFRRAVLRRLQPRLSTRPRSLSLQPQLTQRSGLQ
Protocol: 2. Thromboxanantagonistische Wirkung
Venöses Humanblut wird mit 13 mM Na3-Citrat antikoaguliert und 10 Minuten bei 170 x g zentrifugiert. Das überstehende plättchenreiche Plasma wird zur Entfernung der Plasmaproteine über eine Sepharose-2B-Säule gegeben. Aliquote der erhaltenen Plättchensuspension werden mit der Testsubstanz, dem Liganden (3H-markiert) und einem Marker (14C-markiert) 60 Minuten bei Raumtemperatur inkubiert und danach 20 Sekunden bei 10 000 x g abzentrifugiert. Der Überstand wird abgezogen und das Pellet in NaOH gelöst. Die 3H-Aktivität im Überstand entspricht dem freien Liganden, 14C ergibt die Konzentration des Markers. 3H im Pellet entspricht dem gebundenen Liganden, 14C wird zur Korrektur für Ligand im Extrazellulärraum verwendet. Aus den Bindungswerten für verschiedene Konzentrationen der Testsubstanz wird nach Iteration die Verdrängungskurve ermittelt und die IC₅₀ bestimmt.

Thromboxansynthetase = target: T2, Thromboxansynthetase (Homo sapiens, UniProt P24557); assay: Inhibition of thromboxane synthetase (TXB2 formation from 14C-arachidonic acid in platelet suspension); format: cell-based; conditions: 10 min preincubation at room temperature, read-out: Hemmung der Thromboxansynthetase IC₅₀
T2 construct: Aliquots der erhaltenen Plättchensuspension werden mit der Testsubstanz bzw; Lösungsmittel als Kontrolle 10 Minuten bei Raumtemperatur inkubiert; endogenous in cells; host or cells: gel-filtered human platelets from venous blood
T2 sequence (P24557 1-533): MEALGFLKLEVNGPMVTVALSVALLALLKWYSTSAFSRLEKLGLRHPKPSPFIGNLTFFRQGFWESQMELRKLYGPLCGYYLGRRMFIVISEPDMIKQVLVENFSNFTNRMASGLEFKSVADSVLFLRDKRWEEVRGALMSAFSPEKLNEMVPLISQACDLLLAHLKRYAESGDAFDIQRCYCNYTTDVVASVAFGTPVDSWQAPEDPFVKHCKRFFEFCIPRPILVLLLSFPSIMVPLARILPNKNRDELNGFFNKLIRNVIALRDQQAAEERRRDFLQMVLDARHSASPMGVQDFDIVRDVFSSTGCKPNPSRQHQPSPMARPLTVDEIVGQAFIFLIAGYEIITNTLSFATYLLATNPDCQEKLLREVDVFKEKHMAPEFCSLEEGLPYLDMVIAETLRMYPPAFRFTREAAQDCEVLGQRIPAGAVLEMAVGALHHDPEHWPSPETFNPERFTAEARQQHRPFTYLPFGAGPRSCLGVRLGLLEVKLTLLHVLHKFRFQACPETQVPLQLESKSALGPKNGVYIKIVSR
Protocol: 3. Bestimmung der Hemmwirkung auf die Thromboxansynthetase
Venöses Humanblut wird mit 13 mM Na3-Citrat antikoaguliert und 10 Minuten bei 170 x g zentrifugiert. Das überstehende plättchenreiche Plasma wird zur Entfernung der Plasmaproteine über eine Sepharose-2B-Säule gegeben. Aliquots der erhaltenen Plättchensuspension werden mit der Testsubstanz bzw. Lösungsmittel als Kontrolle 10 Minuten bei Raumtemperatur inkubiert und nach Zugabe 14C-markierter Arachidonsäure die Inkubation weitere 10 Minuten fortgesetzt. Nach Abstoppen mit 50 µl Zitronensäure wird 3 x mit 500 µl Essigester extrahiert und die vereinigten Extrakte mit Stickstoff abgeblasen. Der Rückstand wird in Essigester aufgenommen, auf DC-Folie aufgetragen und mit Chloroform:Methanol:Eisessig:Wasser (90:8:1:0,8, v/v/v/v) getrennt. Die getrockneten DC-Folien werden 3 Tage auf Röntgenfilm gelegt, die Autoradiogramme entwickelt und mit ihrer Hilfe die aktiven Zonen auf der Folie markiert. Nach Ausschneiden wird die Aktivität im Szintillationszähler bestimmt und die Hemmung der TXB2-Bildung berechnet. Die IC₅₀ wird durch lineare Interpolation bestimmt.

IC50 (Thromboxan)	IC50 (Thromboxansynthetase)	Compound	EC50 (Thrombozytenaggregation)
4 nM	4 nM	O=C(O)CCCC=C(c1ccc(NC(=O)C2CC2c2ccc(Cl)cc2)cc1)c1cccnc1 (single isomer, unassigned; (-)) [A, (-)-5E-6-[4-(Z-2-(4-Chlorphenyl)-cyclopropyl-1-carboxamido)-phenyl]-6-(3-pyridyl)-hex-5-ensäure]	500 nM
8 nM	4 nM	O=C(O)CCC/C=C(/c1cccnc1)c1cccc(NC(=O)CCc2ccc(Cl)cc2)c1 [B, 5E-6-[3-(3-(4-Chlorphenyl)-propionylamino)-phenyl]-6-(3-pyridyl)-hex-5-ensäure]	2200 nM
12 nM	32 nM	O=C(O)CCC/C=C(/c1cccnc1)c1cccc(NC(=S)Nc2ccc(Cl)cc2)c1 [C, 5E-6-[3-(3-(4-Chlorphenyl)-thioureido)-phenyl]-6-(3-pyridyl)-hex-5-ensäure]	800 nM
17 nM	90 nM	CN(C(=S)Nc1ccc(Cl)cc1Cl)c1cccc(/C(=C\CCCC(=O)O)c2cccnc2)c1 [D, 5E-6-[3-(3-(2,4-Dichlorphenyl)-1-methylthioureido)-phenyl]-6-(3-pyridyl)-hex-5-ensäure]	1200 nM
